{"source": "patent US20210283253A1", "about": "“COMPOSITIONS AND METHODS AGAINST P. AERUGINOSA INFECTIONS” (priority 2017, published 2021)", "key": {"[1]": {"tested_on": "Pseudomonas aeruginosa", "test": "OPA with mAb/antibiotic combinations", "assay_type": "cell-based", "conditions": "90 minutes", "protocol": "The assay is performed in 96-well microtiter plates with 1% BSA in MEM as the assay diluent. The Leukemia-derived human cell-line HL-60 is used as source of neutrophils. Differentiation of HL-60 cells into neutrophils is induced by addition of 100 mM Dimethylformamide (DMF). Neutrophil morphology is verified by expression of CD11b/Mac-1 marker using FACS. Neutrophils are washed, re-suspended in assay diluent, counted and diluted to a density of 2.5×10^7 cells/ml. Opsonization is mediated by Rabbit sera complement, diluted in assay diluent for a final dilution factor of 1:60. Freshly grown log-phase Pseudomonas strains are re-suspended and diluted in assay diluent to achieve a final ratio of neutrophils to bacteria of 20:1 to 40:1. Dilutions of Aerucin™ from 5 μg/ml to 100 ng/ml are prepared in assay diluent along with a commercial human IgG1 at 5 μg/ml as negative control. Other negative controls include assay mixtures with certain components (complements, neutrophils, antibodies) absent.\nEqual volumes (50 μl) of each component are added to assay wells in the order of: antibodies, complement, neutrophils then bacteria. The components are mixed using a multichannel pipette. Samples at time zero are taken, diluted and plated on agar plates for titer determination. Assay plates are then incubated at 37° C. with shaking for 90 minutes. Samples are again taken, diluted and plated on agar plates.\n(§1) Bacteria titers (CFU/ml) are determined for time-zero and 90-minute samples from colony counts on agar plates after overnight incubation at 37° C. Percent kills are calculated as the difference in titer at 90 minutes from time-zero, divided by the titer at time-zero: […].\nThe assay is performed as described above except that equal volumes (50 μl) of each component are added to assay wells in the order of: antibodies, antibiotic, complement, neutrophils, and then bacteria. Bacteria titers (CFU/ml) are measured directly after mixing all components and after 90 minutes incubation. The read-out of the assay (% kill) is how well the drug or combination of drugs can kill bacteria over these 90 minutes.\nAverages from three independent experiments are presented.\nMinimum inhibitory concentrations (MICs) of the antibiotics used in the OPA assays had been determined upfront (data not shown). […] Data for bactericidal antibiotics Cefepime and Piperacillin was generated with 1×MIC, for Aztreonam (bactericidal) with ½ MIC."}, "[2]": {"tested_on": "P. aeruginosa", "conditions": "cited from earlier work"}, "[3]": {"tested_on": "Pseudomonas aeruginosa", "test": "Opsonic phagocytosis assay (OPA) with Aerucin", "assay_type": "cell-based", "from_the_text": "FIG. 3. […] The opsonic phagocytosis assay (OPA) measures potency of antibodies based on the ability to initiate and mediate destruction of their specific targets by neutrophils. The assay utilizes purified complement from goat, rabbit, guinea pig or human sera, and neutrophils either isolated from whole blood or from differentiation of parental cell lines. Various concentrations of the antibody of interest, along with controls, are mixed with antigens. Complement serum and neutrophils are then added at certain ratios. After incubation to allow phagocytosis to occur, fractions of remaining antigens are then quantified by plating (bacteria) on agar plates to enumerate bacterial colonies remaining from the titer that was used at the start of the assay reaction. […]\nThe assay is performed in 96-well microtiter plates with 1% BSA in MEM as the assay diluent. […] Neutrophils are washed, re-suspended in assay diluent, counted and diluted to a density of 2.5×10^7 cells/ml. […]\nas §1"}, "[4]": {"conditions": "4 μg/ml antibiotic alone (Cefepime 1× MIC, Aztreonam ½ MIC)"}}, "note": "“Also recorded” adds a separate entry of the source."}
{"molecule": "C[C@H]1[C@H](NC(=O)/C(=N\\OC(C)(C)C(=O)O)c2csc(N)n2)C(=O)N1S(=O)(=O)O", "note": "[Aztreonam]", "values": [{"measurement": "% Kill", "setting": "[1]; [4]", "result": 60, "unit": "%"}]}
{"molecule": "CO/N=C(\\C(=O)N[C@@H]1C(=O)N2C(C(=O)[O-])=C(C[N+]3(C)CCCC3)CS[C@H]12)c1csc(N)n1", "note": "[Cefepime]", "values": [{"measurement": "% Kill", "setting": "[1]; [4]", "result": 40, "unit": "%"}]}
{"molecule": "O=C(O)c1cn(C2CC2)c2cc(N3CCNCC3)c(F)cc2c1=O", "note": "[Ciprofloxacin]", "values": [{"measurement": "% Kill", "setting": "[1]; 0.5 μg/ml Ciprofloxacin alone (2× MIC)", "result": "does not show bacterial killing"}]}
{"molecule": "CCN1CCN(C(=O)N[C@@H](C(=O)N[C@@H]2C(=O)N3[C@@H]2SC(C)(C)[C@@H]3C(=O)O)c2ccccc2)C(=O)C1=O", "note": "[Piperacillin]", "values": [{"measurement": "% Kill", "setting": "[1]; 8 μg/ml Piperacillin alone (1× MIC)", "result": "~40", "unit": "%"}]}
{"molecule": "Colistin", "values": [{"measurement": "% Kill", "setting": "[1]; 2 μg/ml Colistin alone (2× MIC)", "result": "~20", "unit": "%"}]}
{"molecule": "Panobacumab: anti-P. aeruginosa serotype 011 lipopolysaccharide monoclonal antibody", "values": [{"measurement": "activity on a meropenem resistant P. aeruginosa strain", "setting": "[2]; meropenem resistant strain", "result": "retained activity"}, {"measurement": "bacterial clearance from the lung", "setting": "[2]; neutropenic host", "result": "enhanced bacterial clearance"}, {"measurement": "lung inflammation", "setting": "[2]; neutropenic host", "result": "significantly reduced lung inflammation"}]}
{"molecule": "Aerucin: anti-Pseudomonas aeruginosa MEP binding human monoclonal antibody; heavy chain variable SEQ ID NO: 5, light chain variable SEQ ID NO: 7 (antibody, listed as Homo sapiens, V domains shown) VH: QLQLQESGPGLVKPTETLSLTCTVSGGPITYINYYWGWVRQPPGKGLEWIGSIHYDGSTFYNPSLKSRVTISGDTSKSEFSVKLSSVTAADTAVYYCARTYYDASGSPYFDHWGQGTLVTVSS VL: QSVLTQPPSVSAAPGQKVSISCSGSSSNIGNNYVSWYQQLPGTAPNLLIYDNNKRPSGIPDRFSGSKSGTSATLDITGLQSGDEADYYCGTWDSSLSTWVFGGGTKLTVL", "values": [{"measurement": "opsonic phagocytosis: killing over negative controls", "setting": "[3]; Aerucin 5 μg/ml to 100 ng/ml, rabbit complement, HL-60 neutrophils, 90 minutes", "result": "significant increase in killing over negative controls in a dose-dependent manner"}, {"measurement": "killing of P. aeruginosa in the absence of complement", "setting": "[3]; OPA without complement, a number of Pa strains (Pa 2410, Pa 27853, Pa PGO2338)", "result": "killing of P. aeruginosa bacteria in the absence of complement; also recorded: killing was observed in the absence of complement"}, {"measurement": "% Kill", "setting": "[1]; 50 ng/ml Aerucin alone", "result": "around 5%"}]}
